# Results from ChEMBL document CHEMBL1275453, “Resistance trends of the Bacteroides fragilis group over a 10-year period, 1997 to 2006, in Madrid, Spain” (2008).
# Key:
# Assay type in all cases: functional
# [1] = tested on: Bacteroides thetaiotaomicron; assay: Antibacterial activity against Bacteroides thetaiotaomicron isolate by agar dilution method
# [2] = tested on: Bacteroides uniformis; assay: Antibacterial activity against Bacteroides uniformis isolate by agar dilution method
# [3] = tested on: Bacteroides ovatus; assay: Antibacterial activity against Bacteroides ovatus assessed as percent resistant isolates by agar dilution method
# [4] = tested on: Bacteroides ovatus; assay: Antibacterial activity against Bacteroides ovatus isolate by agar dilution method
# [5] = tested on: Parabacteroides distasonis; assay: Antibacterial activity against Bacteroides distasonis isolate by agar dilution method
# [6] = tested on: Bacteroides uniformis; assay: Antibacterial activity against Bacteroides uniformis assessed as percent resistant isolates by agar dilution method
# [7] = tested on: Bacteroides eggerthii; assay: Antibacterial activity against Bacteroides eggerthii isolate by agar dilution method
# [8] = tested on: Bacteroides caccae; assay: Antibacterial activity against Bacteroides caccae isolate by agar dilution method
# [9] = tested on: Bacteroides fragilis; assay: Antibacterial activity against Bacteroides fragilis assessed as percent resistant isolates
# [10] = tested on: Parabacteroides merdae; assay: Antibacterial activity against Bacteroides merdae isolate by agar dilution method
# [11] = tested on: Bacteroides sp.; assay: Antibacterial activity against Bacteroides spp. isolate by agar dilution method
# [12] = tested on: Parabacteroides distasonis; assay: Antibacterial activity against Bacteroides distasonis assessed as percent resistant isolates by agar dilution method
# [13] = tested on: Bacteroides stercoris; assay: Antibacterial activity against Bacteroides stercoris isolate by agar dilution method
# [14] = tested on: Bacteroides thetaiotaomicron; assay: Antibacterial activity against Bacteroides thetaiotaomicron assessed as percent resistant isolates by agar dilution method
# [15] = tested on: Bacteroides fragilis; assay: Antibacterial activity against Bacteroides fragilis assessed as percent resistant isolates by agar dilution method
# [16] = tested on: Phocaeicola vulgatus; assay: Antibacterial activity against Bacteroides vulgatus assessed as percent resistant isolates by agar dilution method
# [17] = tested on: Bacteroides stercoris; assay: Antibacterial activity against Bacteroides stercoris assessed as percent resistant isolates by agar dilution method; settings: pooled result: one value given for 4 cell lines, strains, targets or settings
# [18] = tested on: Phocaeicola vulgatus; assay: Antibacterial activity against Bacteroides vulgatus assessed as percent resistant isolates
# [19] = tested on: Phocaeicola vulgatus; assay: Antibacterial activity against Bacteroides vulgatus isolate by agar dilution method
# [20] = tested on: Bacteroides caccae; assay: Antibacterial activity against Bacteroides caccae assessed as percent resistant isolates by agar dilution method
# [21] = tested on: Bacteroides uniformis; assay: Antibacterial activity against Bacteroides uniformis isolate by agar dilution method in presence of Tazobactam
# [22] = tested on: Bacteroides ovatus; assay: Antibacterial activity against Bacteroides ovatus assessed as percent resistant isolates by agar dilution method in presence of Tazobactam
# [23] = tested on: Phocaeicola vulgatus; assay: Antibacterial activity against Bacteroides vulgatus isolate by agar dilution method in presence of Tazobactam
# [24] = tested on: Bacteroides sp.; assay: Antibacterial activity against Bacteroides spp. isolate by agar dilution method in presence of Tazobactam
# [25] = tested on: Parabacteroides distasonis; assay: Antibacterial activity against Bacteroides distasonis assessed as percent resistant isolates by agar dilution method in presence of Tazobactam
# [26] = tested on: Parabacteroides merdae; assay: Antibacterial activity against Bacteroides merdae assessed as percent resistant isolates by agar dilution method in presence of Tazobactam
# [27] = tested on: Phocaeicola vulgatus; assay: Antibacterial activity against Bacteroides vulgatus assessed as percent resistant isolates by agar dilution method in presence of Tazobactam
# [28] = tested on: Bacteroides thetaiotaomicron; assay: Antibacterial activity against Bacteroides thetaiotaomicron isolate by agar dilution method in presence of Tazobactam
# [29] = tested on: Bacteroides caccae; assay: Antibacterial activity against Bacteroides caccae isolate by agar dilution method in presence of Tazobactam
# [30] = tested on: Parabacteroides distasonis; assay: Antibacterial activity against Bacteroides distasonis isolate by agar dilution method in presence of Tazobactam
# [31] = tested on: Bacteroides eggerthii; assay: Antibacterial activity against Bacteroides eggerthii isolate by agar dilution method in presence of Tazobactam
# [32] = tested on: Bacteroides fragilis; assay: Antibacterial activity against Bacteroides fragilis assessed as percent resistant isolates by agar dilution method in presence of Tazobactam
# [33] = tested on: Bacteroides fragilis; assay: Antibacterial activity against Bacteroides fragilis isolate by agar dilution method in presence of Tazobactam
# [34] = tested on: Parabacteroides merdae; assay: Antibacterial activity against Bacteroides merdae isolate by agar dilution method in presence of Tazobactam
# [35] = tested on: Bacteroides caccae; assay: Antibacterial activity against Bacteroides caccae assessed as percent resistant isolates by agar dilution method in presence of Tazobactam
# [36] = tested on: Bacteroides thetaiotaomicron; assay: Antibacterial activity against Bacteroides thetaiotaomicron assessed as percent resistant isolates by agar dilution me in presence of Tazobactam thod
# [37] = tested on: Bacteroides eggerthii; assay: Antibacterial activity against Bacteroides eggerthii assessed as percent resistant isolates by agar dilution method in presence of Tazobactam
# [38] = tested on: Bacteroides stercoris; assay: Antibacterial activity against Bacteroides stercoris isolate by agar dilution method in presence of Tazobactam
# [39] = tested on: Bacteroides ovatus; assay: Antibacterial activity against Bacteroides ovatus isolate by agar dilution method in presence of Tazobactam
# [40] = tested on: Bacteroides uniformis; assay: Antibacterial activity against Bacteroides uniformis assessed as percent resistant isolates by agar dilution method in presence of Tazobactam
# [41] = tested on: Bacteroides stercoris; assay: Antibacterial activity against Bacteroides stercoris assessed as percent resistant isolates by agar dilution method in presence of Tazobactam
# [42] = tested on: Bacteroides sp.; assay: Antibacterial activity against Bacteroides spp. assessed as percent resistant isolates by agar dilution method in presence of Tazobactam
# [43] = tested on: Bacteroides fragilis; assay: Antibacterial activity against Bacteroides fragilis isolate by agar dilution method
compound,measurement,setting,value
COc1c(N2C[C@@H]3CCCN[C@@H]3C2)c(F)cc2c(=O)c(C(=O)O)cn(C3CC3)c12 [MOXIFLOXACIN],MIC50,[1],2 µg/mL
same,MIC90,[1],16 µg/mL
same,MIC50,[2],2 µg/mL
same,MIC90,[2],32 µg/mL
same,Activity,[3],24.4%
same,MIC50,[4],2 µg/mL
same,MIC90,[4],32 µg/mL
same,MIC50,[5],1 µg/mL
same,MIC90,[5],16 µg/mL
same,Activity,[6],24.5%
same,MIC50,[7],2 µg/mL
same,MIC90,[7],16 µg/mL
same,MIC50,[8],2 µg/mL
same,MIC90,[8],32 µg/mL
same,Activity,[9],27.3%
same,MIC50,[10],2 µg/mL
same,MIC90,[10],16 µg/mL
same,MIC50,[11],2 µg/mL
same,MIC90,[11],16 µg/mL
same,Activity,[12],18.6%
same,MIC50,[13],2 µg/mL
same,MIC90,[13],16 µg/mL
same,Activity,[14],17%
same,Activity,[15],9.7%
same,Activity,[16],17%
same,Activity,[17],28.3%
same,Activity,[18],54.7%
same,MIC50,[19],2 µg/mL
same,MIC90,[19],16 µg/mL
same,Activity,[20],22.2%
CCN1CCN(C(=O)N[C@@H](C(=O)N[C@@H]2C(=O)N3[C@@H]2SC(C)(C)[C@@H]3C(=O)O)c2ccccc2)C(=O)C1=O [PIPERACILLIN],MIC50,[21],4 µg/mL
same,MIC90,[21],16 µg/mL
same,Activity,[22],0%
same,MIC50,[23],8 µg/mL
same,MIC90,[23],32 µg/mL
same,MIC50,[24],8 µg/mL
same,MIC90,[24],32 µg/mL
same,Activity,[25],0%
same,Activity,[26],0%
same,Activity,[27],0%
same,MIC50,[28],16 µg/mL
same,MIC90,[28],32 µg/mL
same,MIC50,[29],8 µg/mL
same,MIC90,[29],32 µg/mL
same,MIC50,[30],16 µg/mL
same,MIC90,[30],16 µg/mL
same,MIC50,[31],8 µg/mL
same,MIC90,[31],32 µg/mL
same,Activity,[32],0.5%
same,MIC50,[33],1 µg/mL
same,MIC90,[33],8 µg/mL
same,MIC50,[34],8 µg/mL
same,MIC90,[34],32 µg/mL
same,Activity,[35],2.2%
same,Activity,[36],3.3%
same,Activity,[37],0%
same,MIC50,[38],8 µg/mL
same,MIC90,[38],32 µg/mL
same,MIC50,[39],8 µg/mL
same,MIC90,[39],16 µg/mL
same,Activity,[40],0%
same,Activity,[41],0%
same,Activity,[42],0%
CN(C)c1cc(NC(=O)CNC(C)(C)C)c(O)c2c1C[C@H]1C[C@H]3[C@H](N(C)C)C(O)=C(C(N)=O)C(=O)[C@@]3(O)C(O)=C1C2=O [TIGECYCLINE],MIC50,[1],1 µg/mL
same,MIC90,[1],8 µg/mL
same,MIC50,[2],1 µg/mL
same,MIC90,[2],8 µg/mL
same,Activity,[3],7.2%
same,MIC50,[4],2 µg/mL
same,MIC90,[4],8 µg/mL
same,MIC50,[5],2 µg/mL
same,MIC90,[5],8 µg/mL
same,Activity,[6],9.1%
same,MIC50,[7],1 µg/mL
same,MIC90,[7],8 µg/mL
same,MIC50,[8],1 µg/mL
same,MIC90,[8],16 µg/mL
same,MIC50,[10],1 µg/mL
same,MIC90,[10],8 µg/mL
same,MIC50,[11],1 µg/mL
same,MIC90,[11],8 µg/mL
same,Activity,[12],8.3%
same,MIC50,[13],1 µg/mL
same,MIC90,[13],8 µg/mL
same,Activity,[14],7.5%
same,MIC50,[43],1 µg/mL
same,MIC90,[43],8 µg/mL
same,Activity,[15],6.5%
same,Activity,[16],6.1%
same,Activity,[17],10.5%
same,MIC50,[19],0.5 µg/mL
same,MIC90,[19],8 µg/mL
same,Activity,[20],16.1%
